Assay results taken from patent US11028084B2, “Selective inhibitors of gentotoxic steress-induced IKK/NF-κB pathways” (Max-Delbrück-Centrum für Molekulare Medizin in der …, priority 2016, dated 2021).

How the values were obtained:
[1] = system: IL-1β-induced NF-κB activation; assay: IL-1β-stimulated NF-κB activation, SDS-PAGE/WB and EMSA, U2OS cells; assay type: cell-based, human
Experimental: FIG. 5: (A) U2OS cell were pre-treated with MW01 followed by stimulation with IL-1p. Cell lysates were used for SDS-PAGE/WB and EMSA. (B) Cells pre-treated with increasing concentrations MW01 were stimulated with IL-1p. Cell lysates were used for SDS-PAGE/WB and stained with indicated antibodies.
For the activation of the canonical NF-κB pathway cells were treated with recombinant human TNFα (10 ng/ml) or IL-1β (10 ng/ml) for 20-30 min at 37° C.

[2] = system: IKKγ phosphorylation at S85; assay: IKKγ S85 phosphorylation after irradiation, WB, HEK293 cells; assay type: cell-based; settings: HEK293 (human)
Experimental: (§1) FIG. 11: (A) HEK293 cells were pre-incubated with DMSO, MW01 or ATM inhibitor KU55933 and irradiated. Lysates were subjected to SDS-PAGE/WB. The specific IKKγ S85 band (lower band) was identified by induction following irradiation and by sensitivity to ATMi and λ-phosphatase (λ-PP) treatment. The asterisk indicates a non-specific band that was neither inducible nor ATMi sensitive. (B) Experiment was done as shown in (A) using MEF cells. (C) HEK293 cells were pre-treated with DMSO or MW01, irradiated and lysed. Lysates were used to immunoprecipitate IKKγ using an IKKγ antibody.

[3] = system: IKKγ phosphorylation at S85; assay: IKKγ S85 phosphorylation after irradiation, WB, MEF cells; assay type: cell-based, mouse; settings: MEF (murine)
Experimental: as §1

IKKγ mono-ubiquitination = IKKγ mono-ubiquitination after irradiation, IKKγ immunoprecipitation, HEK293 cells; assay type: cell-based, human
Experimental: as §1
Following cell lysis the protein concentration of samples was determined. For input controls, 40 μg lysate were mixed with 6×SDS-buffer and denatured by heating to 95° C. for 4 min. Approximately 1500 μg protein lysate was used for pulldown and samples volumes were equalled with lysis buffer. Lysates were precleared with 30 μl sepharose A or sepharose G beads (depending on the antibody type used for pulldown) for 30 min, and centrifuged for 5 min at 1,500×g. The supernatant was transferred to a new reaction tube. Primary antibody (2-2.5 μg) was added to the cleared lysate for immunoprecipitation overnight while rotating at 4° C. The next day 30 μl sepharose beads per sample were used for immobilisation of antibodies. […]

U2OS cells = assay: qRT-PCR of anti- and pro-apoptotic genes after γ-IR, U2OS cells; assay type: cell-based, human
Experimental: FIG. 15: (A), (B) U2OS cells were pre-treated with DMSO or MW01 and irradiated. After 8 h mRNA was isolated and reversely transcribed into cDNA. The obtained cDNA was used to perform qRT-PCR using gene specific exon-exon-spanning primers for mRNA of anti-apoptotic (A) and pro-apoptotic genes (B).
To quantitate specific mRNA (messenger RNA) species in samples RNA was isolated, RNA concentration was measured and mRNA was transcribed into cDNA. The amount of mRNA transcripts of certain genes within a sample was quantified by employing gene specific primers and using a C-1000 Thermal cycler (Biorad). The expression of genes of interest was normalised against two or three reference genes (HRPT1, RPL_13a and B2M) using the CFX manager software. The fold induction of mRNA was calculated over untreated sample levels by the ΔΔ-Ct method.

HEK293 cells = assay: Percentage of viable cells, annexin V / propidium-iodide exclusion, flow cytometry, HEK293 cells; assay type: cell-based, human
Experimental: (§2) FIG. 16: (A) U2OS cells were pre-treated with DMSO or MW01 and irradiated. Cells were lysed 8 h post γ-IR and were used for western blotting and immunochemical staining. (B) HEK293 cells were pre-treated with DMSO or MW01 and irradiated. After 48 h cells were fixed and stained with crystal violet. Dissolved crystal violet was used for absorbance measurement in a visible light spectrophotometer at a wavelength of 595 nm. (C) HEK293 cells were pre-treated with DMSO or MW01 and irradiated. The percentage of viable cells within the population was calculated by exclusion of annexin V and propidium-iodide positive cells measured by flow cytometry. (D) MEF cells were pre-treated with DMSO or MW01 and irradiated. Cells were used for annexin V staining 24 h and 48 after γ-IR. Percentage of annexin V positive cell population was analysed using a flow cytometer. (E) Experiment done as shown in (D) but with HT1080 cells processed 8 h after irradiation. Statistical significance was calculated using students t-test.
Cells were washed with ice-cold PBS and detached from growing dishes using Trypsin/EDTA solution. Detached cells were centrifuged at 300×g for 5 min. Detection of early apoptotic cells was performed by staining with annexin V-FITC antibody according to manufacturer's instructions (eBioscience Annexin V-FITC Apoptosis detection Kit). […]

MEF cells = assay: Annexin V staining, flow cytometry, MEF cells; assay type: cell-based, mouse
Experimental: as §2
Cells were washed with ice-cold PBS and detached from growing dishes using Trypsin/EDTA solution. Detached cells were centrifuged at 300×g for 5 min. Detection of early apoptotic cells was performed by staining with annexin V-FITC antibody according to manufacturer's instructions (eBioscience Annexin V-FITC Apoptosis detection Kit). Necroptotic and late apoptotic cells were stained by addition of propidium iodide (final concentration 1 μg/ml) prior to measurements.
The sensitising effect of MW01 on cells was tested in MEF cells with a low irradiation dose of 2 Gy, an amount cells are able to repair. Cells were pre-treated with MW01, irradiated and cells were analysed by annexin V staining 24 or 48 h after irradiation. After 24 h, the treatment of cells with MW01 led to an increase of annexin V positive cells of about 10%. […] Comparing the annexin V positive cells of MW01 treated and MW01/γ-IR co-treated samples, a sensitising effect for low γ-irradiation dose-induced apoptosis of about 12% was found (FIG. 16 D).

DNA repair mechanisms = assay: γH2AX foci per nucleus, immunofluorescence, U2OS cells; assay type: cell-based, human; settings: 5 μM, untreated (non-irradiated) cells, 5 hours
Experimental: FIG. 17: U2OS cells grown on coverslips were incubated 30 min with DMSO or MW01 (5 μM). Then, cells were γ-irradiated (5 Gy) or mock irradiated (mock IR). After 5 hours, cells were fixed and subjected to immunofluorescence staining procedure. DNA damage-indicating γH2AX foci and nuclei n≥480 nuclei per condition) were counted for the calculation of average foci per nucleus. Significance was calculated using student's t-test.
U2OS cells were grown on coverslips and incubated 30 min with DMSO or MW01 (5 μM). Then, cells were γ-irradiated (5 Gy) or mock irradiated (mock IR). After 5 hours, cells were fixed and subjected to immunofluorescence staining procedure. DNA damage-indicating γH2AX foci and nuclei (n≥480 nuclei per condition) were counted for the calculation of average foci per nucleus. Significance was calculated using student's t-test.

COc1ccc2c(c1OC)c(=O)n1c3ccc(O)cc3c3ccnc2c31 [MW01, 12-hydroxy-6,7-dimethoxy-8H-benzo[c]indolo[3,2,1-ij][1,5]naphthyridin-8-one]
p65 S536 phosphorylation following IL-1β stimulation ([1]; U2OS): neither inhibited p65 S536 phosphorylation
IKK activation and p65 S536 phosphorylation after IL-1β at high concentrations ([1]; up to 100 μM): no effect on the phosphorylation state of IKK or p65
phosphorylation of IKKγ at S85 [2]: abolished
phosphorylation of IKKγ at S85 [3]: abolished
IKKγ mono-ubiquitination (IKKγ mono-ubiquitination): abolishment
BIRC3 mRNA (U2OS cells; 8 h after γ-IR): down-regulated
expression of BCL2L1 mRNA (U2OS cells; 8 h after γ-IR): fully inhibited
expression of XIAP mRNA (U2OS cells; 8 h after γ-IR): moderately inhibited
BBC3 mRNA expression, induction (U2OS cells; after irradiation): 3 fold
PMAIP1 mRNA expression (U2OS cells; after irradiation): further elevated
mRNA expression of TNFAIP3 (U2OS cells; after γ-IR, in comparison to irradiated controls): abolished mRNA expression
mRNA expression of PMAIP1 (U2OS cells; pre-treatment without irradiation): already increased
BBC3 mRNA expression (U2OS cells; without irradiation): not influenced
mRNA expression of BIRC3, XIAP or BCL2L1 in comparison to the DMSO control (U2OS cells; without irradiation): did not significantly change
less viable cells after irradiation (HEK293 cells; HEK293, after irradiation): ~17%
percentage of viable cells compared to the DMSO control (HEK293 cells; HEK293, non-irradiated): slightly reduced
increase of annexin V positive cells (MEF cells; 24 h, without IR): about 10%
sensitising effect for low γ-irradiation dose-induced apoptosis (MEF cells; MW01 vs MW01/γ-IR co-treated samples): about 12%
annexin V staining of cells (MEF cells; after 2 Gy of γ-irradiation): circa 34%
γH2AX foci per cell (DNA repair mechanisms): significant increase
